Columns and labels:
[1] = tested on: Human pancreas cell cultures, 55 generations; test: Time course of insulin secretion in response to glucose (Example 18); format: cell-based
Protocol: Human pancreas cell cultures from Example 16 were maintained in continuous culture through 55 generations, at which time they had been in culture for 12 months.
Two hours prior to the experiment, the cells were centrifuged at 1070 rpm for 5 minutes and then resuspended in glucose-poor medium consisting of 1 part DMSS plus 6 parts PDM. The cells were incubated in glucose-poor medium (glucose-starved) at a concentration of about 1.5×10^6 cells/ml in 10 ml culture flasks for two hours at 37°.
The cells were then centrifuged and resuspended in the experimental medium consisting of one part DMSS and six parts PDM. The glucose concentration in the experimental medium alone was 1.1 mM. To this medium was added glucose in the concentrations shown in Table 12 below, and the cells were incubated for various times.

[2] = tested on: Human pancreas cells at passage generation 47; test: Effect of amino acids on glucose stimulated insulin secretion (Example 20); format: cell-based; details: 90 minutes
Protocol: Human pancreas cells at passage generation 47, were prepared for the experiment as described in Example 17 above. The cells were incubated in 6 parts PDM plus 1 part DMSS medium at a concentration of 10^5 cells/ml, at various concentrations of glucose. Alanine (10 mM) or arginine(20 mM) were added, and the cells were incubated for 90 minutes, at which time samples were collected for assay of insulin content.

[3] = tested on: daughter-islet cells from human pancreas whole islets; test: Indirect immunofluorescence for insulin after glucose stimulation of daughter-islets (Example 22); format: cell-based; details: 12 mM glucose 3 hours
Protocol: The first assessment was made after three months in culture at the eighth passage generation and the second assessment was made after the sixteenth passage generation and eight months in continuous culture. On the average the daughter-islet cells were passed every 10-14 days. To test the response of the cells to glucose stimulation, the cultures were given a glucose poor basal medium. The basal medium as set forth in Formula VI below was a RPMI-1640 derivative containing 2 mM glucose. The cells remained in glucose poor medium for a period of 4 hours. The cells were first washed five times for 10 minutes each in the Formula VI medium prior to a 3 hour final incubation in the same basal medium. Subsequently the cultures were placed in the same medium, except that its total glucose concentration was 12 mM (instead of 2 mM glucose) for 3 hours and then prepared for indirect immunofluorescence to detect the presence of insulin.
The materials and partial protocol used in this example were as follows:
1. Primary antibody: Guinea pig monoclonal anti-insulin (human) [Peninsula Laboratories, Inc. IFK-7303G] working dilution used was 1:200.
2. Secondary antibody: Rabbit anti-guinea pig IgG (whole molecule) affinity isolated—TRITC conjugate (Sigma T-7153).
3. Negative control: 1 ml of the primary antiserum of the Guinea pig monoclonal anti-insulin (human) was added to 50 μgm of synthetic human insulin (Peninsula Laboratories, Inc.).
4. Nuclear counterstain: Hoechst 33258 (Sigma Chemical Co.), 0.1% was used.
The procedures followed for fixing the cells and the amount of primary and secondary antibodies used are given in detail in the description of procedures for Example 23. The control experiment was exposure only to the glucose poor basal medium.

[4] = tested on: human pancreas whole islets; test: Insulin secretion of cultured whole islets in response to glucose, RIA (Example 24); format: cell-based; details: +10 mM Glucose (Total 12 mM Glucose)
Protocol: The whole islets were isolated and obtained as described in Example 22. Prior to this experiment they had been in culture for 3¾ months in OCZEM-M and were passage generation 11. Insulin secretion was measured by RIA (Diagnostic Products Corporation).
The cultured whole islets were washed in basal medium [RPMI (5×@ 20 minutes) before the experiment. Then individual whole islets were cultured in the basal level medium containing 2 mM glucose described in Example 22 for 3½ hours (1 islet/1 ml). Each individual islet was then transferred to 1 ml of the basal medium containing an additional 10 mM glucose (to yield a total glucose concentration of 12 mM) and cultured for another 3½ hours. A comparison of the resulting amounts of secreted insulin is shown below in Table 16. Each individual islet was placed in a separate culture dish after the experiment so that future tests on insulin secretion could be measured on identified islets.

[5] = tested on: daughter-islet cells; test: Daughter islet cell insulin secretion in response to glucose, RIA (Example 25); format: cell-based, human; details: for Secreted Insulin: 17 months of culture, one hour
Protocol: The daughter-islets were obtained as progeny arising through cell division from islet cells in the cultured whole islets obtained as isolates from human pancreases. After 17 months of culture the daughter-islet cells were analyzed for their ability to secrete insulin in response to physiological levels of glucose. Formula VI, as described in Examples 22 and 24 with designated glucose concentrations of 2 mM (Basal level), 7.6 mM (Maintence level), 12 mM and 22 mM was used for the experiment. Care was taken to control the osmolarity of each medium to the range of 260-268 mOsm so that no strong osmotic shock was administered to the daughter-islet cells. The cells were washed 5 times, at 20 minutes each wash, with the basal level medium (2 mM glucose level) before the experiment. Each group of 5 daughter-islet was placed in 1 ml of the test medium and incubated at 37° C., with 5% CO2/5% O2/90% N2, for one hour. The medium was collected for assay and new medium containing 7.6 mM glucose was added. The one hour incubation, using the same conditions was then repeated. Those steps were repeated for the challenges with medium containing 12 mM and 22 mM glucose. Analysis of insulin secretion levels was done by RIA as described in Example 24.

For `O=C[C@H](O)[C@@H](O)[C@H](O)[C@H](O)CO` [glucose, D(+)glucose], the Insulin secreted ([1]; 1 mM glucose added, 1 hr) was 275 μIU Insulin secreted/1.5 milli, the Insulin secreted ([1]; 1 mM glucose added, 2 hr) was 363 μIU Insulin secreted/1.5 milli and the Insulin secreted ([1]; 1 mM glucose added, 3 hr) was 451 μIU Insulin secreted/1.5 milli. The Insulin secreted ([1]; 1 mM glucose added, 5 hr) was 564 μIU Insulin secreted/1.5 milli, the Insulin secreted ([1]; 1 mM glucose added, 7 hr) was 582 μIU Insulin secreted/1.5 milli and the Insulin secreted ([1]; 1 mM glucose added, 24 hr) was 812 μIU Insulin secreted/1.5 milli. The Insulin secreted ([1]; 5.6 mM glucose added, 1 hr) was 3413 μIU Insulin secreted/1.5 milli, the Insulin secreted ([1]; 5.6 mM glucose added, 2 hr) was 982 μIU Insulin secreted/1.5 milli and the Insulin secreted ([1]; 5.6 mM glucose added, 3 hr) was 999 μIU Insulin secreted/1.5 milli. The Insulin secreted ([1]; 5.6 mM glucose added, 5 hr) was 2383 μIU Insulin secreted/1.5 milli, the Insulin secreted ([1]; 5.6 mM glucose added, 7 hr) was 2718 μIU Insulin secreted/1.5 milli and the Insulin secreted ([1]; 5.6 mM glucose added, 24 hr) was 2760 μIU Insulin secreted/1.5 milli. The Insulin secreted ([1]; 11.0 mM glucose added, 1 hr) was 3376 μIU Insulin secreted/1.5 milli, the Insulin secreted ([1]; 11.0 mM glucose added, 2 hr) was 1768 μIU Insulin secreted/1.5 milli and the Insulin secreted ([1]; 11.0 mM glucose added, 3 hr) was 2220 μIU Insulin secreted/1.5 milli. The Insulin secreted ([1]; 11.0 mM glucose added, 5 hr) was 1184 μIU Insulin secreted/1.5 milli, the Insulin secreted ([1]; 11.0 mM glucose added, 7 hr) was 3202 μIU Insulin secreted/1.5 milli and the Insulin secreted ([1]; 11.0 mM glucose added, 24 hr) was 1276 μIU Insulin secreted/1.5 milli. The Insulin secreted ([1]; 16.5 mM glucose added, 1 hr) was 3716 μIU Insulin secreted/1.5 milli, the Insulin secreted ([1]; 16.5 mM glucose added, 2 hr) was 2415 μIU Insulin secreted/1.5 milli and the Insulin secreted ([1]; 16.5 mM glucose added, 3 hr) was 2450 μIU Insulin secreted/1.5 milli. For the same molecule, the Insulin secreted ([1]; 16.5 mM glucose added, 5 hr) was 2589 μIU Insulin secreted/1.5 milli, the Insulin secreted ([1]; 16.5 mM glucose added, 7 hr) was 4039 μIU Insulin secreted/1.5 milli and the Insulin secreted ([1]; 16.5 mM glucose added, 24 hr) was 2099 μIU Insulin secreted/1.5 milli. The Insulin secreted ([1]; 22 mM glucose added, 1 hr) was 2538 μIU Insulin secreted/1.5 milli, the Insulin secreted ([1]; 22 mM glucose added, 2 hr) was 1845 μIU Insulin secreted/1.5 milli and the Insulin secreted ([1]; 22 mM glucose added, 3 hr) was 2066 μIU Insulin secreted/1.5 milli. The Insulin secreted ([1]; 22 mM glucose added, 5 hr) was 1722 μIU Insulin secreted/1.5 milli, the Insulin secreted ([1]; 22 mM glucose added, 7 hr) was 1320 μIU Insulin secreted/1.5 milli and the Insulin secreted ([1]; 22 mM glucose added, 24 hr) was 989 μIU Insulin secreted/1.5 milli. The Insulin secreted ([1]; 33 mM glucose added, 1 hr) was 972 μIU Insulin secreted/1.5 milli, the Insulin secreted ([1]; 33 mM glucose added, 2 hr) was 345 μIU Insulin secreted/1.5 milli and the Insulin secreted ([1]; 33 mM glucose added, 3 hr) was 446 μIU Insulin secreted/1.5 milli. For the same molecule, the Insulin secreted ([1]; 33 mM glucose added, 5 hr) was 657 μIU Insulin secreted/1.5 milli, the Insulin secreted ([1]; 33 mM glucose added, 7 hr) was 1109 μIU Insulin secreted/1.5 milli and the Insulin secreted ([1]; 33 mM glucose added, 24 hr) was 1073 μIU Insulin secreted/1.5 milli. For the same molecule, the “glucose concentration of maximal response” value ([1]; glucose-starved cells, 1 to 24 hr) was 16.5 mM, the “insulin secretion, control (glucose alone)” value (shortened to “insulin secretion, control”) ([2]; total 1 mM glucose, 10^5 cells/ml) was 91 and the “insulin secretion, control” value ([2]; total 2 mM glucose) was 108. For the same molecule, the “insulin secretion, control” value ([2]; total 6 mM glucose) was 112, the “insulin secretion, control” value ([2]; total 11 mM glucose) was 116 and the “insulin secretion, control” value ([2]; total 16 mM glucose) was 128. The “insulin secretion, control” value ([2]; total 22 mM glucose) was 115, the “% of insulin positive cells” value ([3]; 3 mo. culture (8th passage generation)) was 88% and the “# cells positive for insulin (anti-insulin-RITC)” value ([3]; 3 mo. culture (8th passage generation), 388 cells screened) was 343. The “% of insulin positive cells” value ([3]; 8 mo. culture (16th passage generation)) was 87%, the “# cells positive for insulin (anti-insulin-RITC)” value ([3]; 8 mo. culture (16th passage generation), 195 cells screened) was 170 and the “Secreted Insulin” value ([4]; 2 Medium islets @) was 162.2 uIU/ml/hr. The “Secreted Insulin” value ([4]; 2 Very small islets @ (<0.5 μm)) was 84.5 uIU/ml/hr, the “Secreted Insulin” value ([4]; Extra large islet (>250 μm), 3½ hours) was 86.7 uIU/ml/hr and the “Secreted Insulin” value ([4]; Large islet (˜150 μm)) was 149.4 uIU/ml/hr. The “Secreted Insulin” value ([5]; 12 mM glucose) was 38.6 μIU/ml/hour/10^3 cells, the “Secreted Insulin” value ([5]; 22 mM glucose) was 144.5 μIU/ml/hour/10^3 cells and the “maximal response relative to the basal level” value ([5]; basal level 0.3 at 2 mM glucose) was 482 times.
